Experimental data: PMC11243419, “Ruthenium p-Cymene Complexes Incorporating Substituted Pyridine–Quinoline-Based Ligands: Synthesis, Characterization, and Cytotoxic Properties” (Molecules, 2024)
Like-named read-outs stand apart in the source and are kept apart here. Values belong to the compound of their own block, whether it stands above or below them.

Assays:
[1] = test system: carcinoma human T24 bladder cells; design: method as in PMID 37569273; settings: T24 bladder cells vs other cell lines; cited from earlier work
HeLa cells [2] = settings: cited from earlier work
HeLa cells [3] = assay: MTT cell viability assay, HeLa cells; type: cell-based, human; settings: 48 h incubation, mean ± SD, stock in DMSO (3-Cl and cisplatin in water)
Protocol: (§1) Cell viability tests of the ligand and metal precursors (pqhyme, pqca, pcqame, [Ru(η^6-p-cymene)(μ-Cl)Cl]2) and the ruthenium(II)–arene complexes 1-Cl, 2-Cl and 3-Cl were conducted in two cell lines, including epithelial-like HEK293T cells (human embryonic kidney cells) and tumor-derived HeLa cells (cervical cancer cells), by MTT colorimetric assay, after 48 h incubation (MTT = 3-(4,5-dimethylthiazol-2-yl)-2,5-diphenyl tetrazolium bromide). For comparison, the 3-PF6 analog was also studied. Generally, a 5 to 10 mM stock solution of the complexes in DMSO (H2O for cisplatin) was prepared and diluted appropriately to reach the final concentration reported in the Materials and Methods. HeLa cancer cells were chosen since this cell line is widely used in cytotoxicity studies while the non-cancerous HEK293T cell line was used for comparison. Cytotoxicity results of all substances studied in both cell lines expressed as IC50 mean values, are summarized in Table 1, including that of cisplatin, which served as control under the same conditions. The IC50 values were calculated using a dose–response model, which was obtained from sigmoidal fitting of dose–response curves.
(§2) The HEK293T cell line (immortalized human embryonic kidney cells) and the HeLa cell line (cervical cancer cells) were obtained from ATCC. Cells were cultured at 37 °C and 5% CO2 in high glucose Dulbecco’s modified Eagle’s medium (DMEM) containing 10% fetal bovine serum (FBS), penicillin (100 units/mL), and streptomycin (100 μg/mL).
(§3) Ruthenium complexes were diluted in stock solutions of 10 mM in dimethyl sulfoxide (DMSO). A similar concentration of cisplatin dissolved in H2O was used. Cells were seeded in sterile tissue culture 96-well plates at a density of 3,000 cells per well. After 24 h, the medium was removed and replaced with fresh media containing various concentrations (0.01 μΜ, 0.1 μΜ, 1 μΜ, 10 μΜ, 25 μΜ, 40 μΜ, 55 μΜ, 70 μΜ, 85 μΜ, and 100 μΜ) of the compounds to be tested and were further incubated for 48 h at 37 °C. DMSO was used as vehicle at ≤1%. Culture medium containing the compounds (or DMSO) was removed and 100 μL of 0.5 mg/mL MTT reagent (Applichem) diluted in DMEM was added to the cells for 3 h at 37 °C. After 3 h incubation, MTT was removed and 200 μL of DMSO was added. Absorbance values of formazan were measured at 540 nm using a BioTek Synergy H1 microplate reader (Agilent). All compounds were tested in triplicate. The results were statistically analyzed using the nonlinear regression by GraphPad PRISM (Version 9) to extract IC50 values.

HEK293T cells = assay: MTT cell viability assay, HEK293T cells; type: cell-based, human; settings: 48 h incubation, mean ± SD, stock in DMSO (3-Cl and cisplatin in water)
Protocol: as §1, §2, §3

Solubility (qualitative) = type: physicochemical; settings: solvents
Protocol: The mononuclear organometallic complex 1-Cl comprising the pqhyme ligand was isolated as an orange–brown solid in high yield. […] Subsequent treatment with a saturated aqueous KPF6 solution afforded, via a metathesis reaction, the hexafluorido analog 1-PF6. Both complexes are air-stable in the solid state and melt with decomposition at 155 °C and 137 °C, respectively. The FT-IR spectra (ATR mode) of both complexes are almost identical, as expected for complexes that display very similar structures. For 1-Cl the presence of water of crystallization is evident from the intense and broad bands at ∼3350–3250 cm^−1 due to the antisymmetric and symmetric ν(O-H) stretching vibration modes. The O–H stretching vibration band from pending -CH2OH moiety is hampered within the broadness of the band reported above. Also, the strong band at approximately 1650 cm^−1 is due to the δ(H–O-H) bending mode. The characteristic bands at 3061 cm^−1, and in the region of 2998–2850 cm^−1 correspond to ν(C–H) aromatic and aliphatic stretching vibrations modes of the ligand, while the medium intensity band at ∼800 cm^−1 is typical for the stretching vibration mode of ν(Ru–C). In the region of 800-600 cm^−1, the spectrum is dominated by the very strong in-plane and out-of-plane deformation bands from the pyridine ring of pqhyme ligand. For 1-PF6, the two very strong bands at 840 cm^−1 and 557 cm^−1 are assigned to the ν3(P–F) and ν4(P–F) vibration modes of the PF6^− anion (Figure S1 of the Supplementary Materials).
The [Ru(η^6-p-cymene)(pqca)Cl]Cl complex 2-Cl was isolated in 85% yield as an orange–red air-stable solid that melts at 125 °C. Upon further heating, decomposition occurs at 150 °C, accompanied by gas evolution, leading to a black solid.
The [Ru(η^6-p-cymene)(pqcame)Cl]Cl analog 3-Cl was isolated almost quantitatively as a dark brown air-stable solid that decomposes at 111 °C. […] The FT-IR spectrum of 3-Cl is characterized by a strong asymmetric stretching vibration typical of the νas(C=O) of the ester moiety at 1722 cm^−1, shifted to higher wave numbers compared with 2-Cl. […]

[4] = Solution stability by UV-Vis spectroscopy; type: physicochemical; settings: for Stability in the media used for the biological assays (UV-Vis): DMSO, ambient temperature
Protocol: To ensure the stability of the complexes for the in vitro cytotoxicity measurements, UV–Vis and ^1H NMR spectroscopic techniques were undertaken. UV–Vis spectra were recorded in DMSO (not dry), for complexes 1-Cl and 2-Cl (Figures S25–S27) and in water for complex 3-Cl (Figure 3), at ambient temperature, immediately after dissolution. The absorption spectra of 1-Cl and 2-Cl show a broad absorption band centered at ~ 435 nm, as reported for other ruthenium(II) half-sandwich arene complexes. For 3-Cl, this band becomes weaker and is blue-shifted to 422 nm. Ongoing from 1-Cl to 3-Cl, the set of high energy bands observed at 354 nm/296 nm (1-Cl), 357 nm/298 nm (2-Cl), and 357 nm/293 nm (3-Cl), are typical of metal-to-ligand charge transfer absorption bands (MLCT) and ligand-centered π–π* transitions. Within the series, ε values for these transitions range from 3000 to 9600 dm^3 mol^−1 cm^−1, with the methyl ester analog 3-Cl, displaying the higher extinction coefficient value of ∼9600 dm^3 mol^−1 cm^−1.
(§4) The cytotoxicity studies of the organometallic ruthenium(II) complexes 1-Cl, 2-Cl, and 3-PF6 were carried out in dimethyl sulfoxide (DMSO) while 3-Cl was dissolved in water. According to UV–Vis spectroscopy, complexes 1-Cl and 2-Cl are stable in the media that are used for the biological assays (Figures S25–S26), while 3-Cl undergoes hydrolysis approximately 3 h after with isosbestic points at 276 nm and 322 nm, respectively (Figure S27). […] In any case, for the biological assays, freshly prepared solutions were prepared that were utilized within approximately 5–10 min.

[5] = Solution stability by 1H NMR spectroscopy; type: physicochemical
Text: The solution NMR spectra (^1H and ^13C{^1H}) of 1-Cl and 1-PF6 in CDCl3 feature the characteristic set of resonances of the pqhyme and p-cymene ligands supporting the proposed formulae of the compounds (Figures S2–S5 of the Supplementary Materials). Atom numbering for NMR assignment is included in Scheme 1. […] The separate and well-resolved resonance signals at δ 5.92–5.61 in a ratio of 1:1:1:1 (according to integration) are typical of the p-cymene ring protons. The characteristic singlet resonance signals at δ 5.47 for 1-Cl and 5.48 for 1-PF6 are attributed to the -CH2 protons of the pending -CH2OH moiety. These were upfield shifted compared to the p-cymene ligand of the metal precursor [43]. In addition, the septet resonance signals at δ 2.29 for 1-Cl and δ 2.44 for 1-PF6 are indicative of the -CH(CH3)2 proton, while the two […] at δ 0.87/0.91 (1-Cl) and δ 0.93/0.97 (1-PF6) can be assigned to the methyl protons of the isopropyl group. For 1-Cl, and after two days of standing in CDCl3, free p-cymene was detected (c.a. 2.6%) along with the formation of new unknown species. The ^1H NMR pattern of the spectrum remained practically unchanged (Figure S7).
The ^1H NMR spectrum of 2-Cl was recorded in DMSO-d6 at ambient temperature. […] The stability of 2-Cl in DMSO is shown below in Section 2.1.1. […] The singlet resonance at δ 8.94 is typical for H3 of the bidentate ligand, while the four separate doublet resonance signals in between δ 6.19, 6.13, 6.03, and 5.97 correspond to the p-cymene ring protons. […] In this region, the CH3 protons of the -CH-(CH3)2 moiety appear as two doublet resonances at δ 0.81 and 0.77, respectively. The ^13C NMR signals of 2-Cl were assigned by two-dimensional ^1H–^13C HSQC and ^1H–^13C HMBC methods and compared with the literature data from similar complexes. […] Analyzing the spectrum, the resonance signal at δ 166.31 is assigned to the carbon atom of the carboxylic acid group of pqca. In the aliphatic region of the spectrum, the carbon atoms from the CH3 groups of p-cymene ligand appear as intense singlets at δ 21.58, 21.21, and 18.18, respectively (Figures S12–S15).
as §4

Compound: Cc1ccc(C(C)C)cc1.O=C(O)c1ccnc(-c2cc(C(=O)O)ccn2)c1.[Cl-].[Cl-].[Ru+2]
- Selectivity among cell lines [1]: high selectivity toward carcinoma human T24 bladder cells

Compound: Cc1ccc(C(C)C)cc1.Nc1ccccc1O.[Cl][Ru][Cl]
- IC50 (HeLa cells [2]): 82.9 µM

Compound: Cc1ccc(C(C)C)cc1.Nc1ccc(O)cc1.[Cl][Ru][Cl]
- IC50 (HeLa cells [2]): 171 µM

- IC50 (HeLa cells [3]): 56.4 ± 12.7 µM
Compound: 4-carboxymethyl-2-(pyridin-2-yl)quinoline [pqcame]
- IC50 (HEK293T cells): 48.9 ± 3.19 µM

Compound: Cc1ccc(C(C)C)cc1.Cc1ccc(C(C)C)cc1.[Cl][Ru][Cl].[Cl][Ru][Cl] [[Ru(p-cymene)Cl2]2, [Ru(η^6-p-cymene)(μ-Cl)Cl]2]
- IC50 (HeLa cells [3]): 48.9 ± 1.73 µM
- IC50 (HEK293T cells): 48.3 ± 1.66 µM

Compound: N.N.[Cl][Pt][Cl] [cis-platin, cisplatin, reference compound]
- IC50 (HeLa cells [3]): 9.26 ± 1.09 µM
- IC50 (HEK293T cells): 16.4 ± 7.62 µM

- IC50 (HeLa cells [3]; Homo sapiens, HeLa): 100 ± 3.47 µM
Compound: O=C(O)c1cc(-c2ccccn2)nc2ccccc12 [pqca, 4-carboxy-2-(pyridin-2-yl)quinoline]
- IC50 (HEK293T cells; Homo sapiens, HEK-293T): 87.5 ± 1.3 µM

- IC50 (HeLa cells [3]; Homo sapiens, HeLa): 12.8 ± 1.01 µM
Compound: OCc1cc(-c2ccccn2)nc2ccccc12 [pqhyme, 4-hydroxymethyl-2-(pyridin-2-yl)quinoline]
- IC50 (HEK293T cells; Homo sapiens, HEK-293T): 2.67 ± 1.23 µM

- Stability in the media used for the biological assays (UV-Vis) [4]: stable
- IC50 (HeLa cells [3]): 162 ± 21.3 µM
- Period of 1H NMR monitoring showing stability ([5]; DMSO-d6): more than 72 h
- Stability in DMSO-d6 (1H NMR) ([5]; DMSO-d6): practically remains stable
Compound: [Ru(η^6-p-cymene)(pqca)Cl][Cl] [2-Cl]
- Solubility (Solubility (qualitative)): soluble in polar organic solvents (MeOH, EtOH, water) including DMSO and DMF
- IC50 (HEK293T cells): 180 ± 49.1 µM

- Time until hydrolysis (UV-Vis, isosbestic points at 276 nm and 322 nm) ([4]; in water): approximately 3 h
- IC50 (HeLa cells [3]): > 80 µM
Compound: [Ru(η^6-p-cymene)(pqcame)Cl][Cl] [3-Cl]
- Solubility (Solubility (qualitative)): dissolves in water, DMSO, and other polar solvents
- IC50 (HEK293T cells): > 115 µM

- IC50 (HeLa cells [3]): 134 ± 3.3 µM
Compound: [Ru(η^6-p-cymene)(pqcame)Cl][PF6] [3-PF6]
- IC50 (HEK293T cells): 145 ± 16.2 µM

- Stability in the media used for the biological assays (UV-Vis) [4]: stable
- IC50 (HeLa cells [3]): 119 ± 1.29 µM
- Stability in DMSO-d6 (1H NMR) ([5]; DMSO-d6): stable
- Free p-cymene detected (1H NMR) ([5]; after two days of standing in CDCl3): ~2.6%
Compound: [Ru(η^6-p-cymene)(pqhyme)Cl][Cl] [1-Cl]
- Solubility (Solubility (qualitative)): dissolves in DMSO, and water and is less soluble in CHCl3
